Test results as given in the NIST ThermoML archive (doi:10.1021/acs.jced.6b00026).

Conditions: Liquid, Buoyancy - hydrostatic balance with magnetic suspension - one sinker

CCCCCCCCCCC [undecane]
Conditions | mass density [kg/m3]
313.17 K, 19009 kPa | 741.21
313.18 K, 9997 kPa | 734.69
313.19 K, 12016 kPa | 736.18
313.19 K, 18013 kPa | 740.5
313.22 K, 14009 kPa | 737.62
313.23 K, 16006 kPa | 739.05
313.24 K, 8029 kPa | 733.14
323.18 K, 19002 kPa | 734.54
323.19 K, 16026 kPa | 732.35
323.19 K, 17995 kPa | 733.8
323.22 K, 10009 kPa | 727.67
323.23 K, 12003 kPa | 729.24
323.23 K, 14022 kPa | 730.8
323.24 K, 7997 kPa | 726.03
333.12 K, 16003 kPa | 725.32
333.12 K, 17990 kPa | 726.87
333.13 K, 12007 kPa | 722.07
333.14 K, 8001 kPa | 718.68
333.14 K, 19027 kPa | 727.66
333.15 K, 14012 kPa | 723.7
333.16 K, 10001 kPa | 720.38
343.25 K, 13005 kPa | 716
343.25 K, 16996 kPa | 719.36
343.26 K, 11021 kPa | 714.27
343.26 K, 14019 kPa | 716.86
343.27 K, 15997 kPa | 718.51
343.27 K, 18006 kPa | 720.27
343.28 K, 11999 kPa | 715.12
343.28 K, 19019 kPa | 720.98
343.29 K, 7989 kPa | 711.51
343.29 K, 9998 kPa | 713.33
343.3 K, 14998 kPa | 717.66
353.16 K, 12003 kPa | 708.19
353.31 K, 11002 kPa | 707.25
353.31 K, 17012 kPa | 712.63
353.32 K, 13007 kPa | 709.08
353.32 K, 14999 kPa | 710.86
353.32 K, 19024 kPa | 714.35
353.33 K, 7993 kPa | 704.36
353.33 K, 14003 kPa | 709.98
353.33 K, 18010 kPa | 713.48
353.34 K, 16001 kPa | 711.73
353.35 K, 9996 kPa | 706.27
